Test results as given in patent publication US20070282004A1, “Use of a Cyclopentenone Prostaglandin for Delaying for the Onset and/or Preventing the Continuation of Labour” (Imperial College Innovations Limited, priority 2003, published 2007).

Key:
[1] = tested on: COX-2; assay: Western immunoblot of IL-1β-induced COX-2 protein in myometrial cells; assay type: cell-based, human; details: treated 2 h, IL-1β 6 h
Experimental: (§1) Myometrial tissue was collected at term from the upper margin of uterine incision at the time of lower segment caesarean section either prior to the onset of labour (L−) or […] (L+). L+ samples were collected by Dr Mark Johnson and Dr S Soorrana at Chelsea & Westminster Hospital. Myometrial tissue was dissected, rinsed in PBS, and digested in serum-free DMEM containing 15 mg/ml collagenase 1A (Sigma), 15 mg/ml collagenase X, and 50 mg/ml bovine serum albumin for 45 min at 37° C. The cell suspension was filtered through a cell strainer, centrifuged at 400 g for 5 min, and the pellet re-suspended and plated out in DMEM, 10% FCS (Helena BioScience), 1% L-glutainine, 1% penicillin-streptomycin. Cells were used between passage numbers 1-4.
Nuclear and cytosolic protein extracts were obtained from cultured amnion cells as described by Schreiber et al (1989). […]
Protein samples (20-70 μg) were mixed with Laemmli sample buffer (1:1) containing β-mercaptoethanol (5%), and boiled for 5 min. […] The blots were then incubated with HRP-conjugated secondary antibody (diluted 1:2000 in 1% non-fat milk in PBS-T buffer) for 1 h and washed three times (10 min each) in PBS-T. Signal detection was achieved using enhanced chemi-luminescence (ECL plus system, Amersham Pharmacia Biotech) according to manufacturer's instructions. […]

[2] = target: T1, NF-κB (Homo sapiens, UniProt P19838+Q04206); assay: EMSA of NF-κB DNA binding in nuclear extracts of treated myometrial cells; assay type: cell-based; details: myometrial cells
T1 construct: nuclear protein extracts from myometrial cells; endogenous in cells; host or cells: primary human myometrial cells (term, passage 1-4)
T1 sequence (Q04206 whole entry): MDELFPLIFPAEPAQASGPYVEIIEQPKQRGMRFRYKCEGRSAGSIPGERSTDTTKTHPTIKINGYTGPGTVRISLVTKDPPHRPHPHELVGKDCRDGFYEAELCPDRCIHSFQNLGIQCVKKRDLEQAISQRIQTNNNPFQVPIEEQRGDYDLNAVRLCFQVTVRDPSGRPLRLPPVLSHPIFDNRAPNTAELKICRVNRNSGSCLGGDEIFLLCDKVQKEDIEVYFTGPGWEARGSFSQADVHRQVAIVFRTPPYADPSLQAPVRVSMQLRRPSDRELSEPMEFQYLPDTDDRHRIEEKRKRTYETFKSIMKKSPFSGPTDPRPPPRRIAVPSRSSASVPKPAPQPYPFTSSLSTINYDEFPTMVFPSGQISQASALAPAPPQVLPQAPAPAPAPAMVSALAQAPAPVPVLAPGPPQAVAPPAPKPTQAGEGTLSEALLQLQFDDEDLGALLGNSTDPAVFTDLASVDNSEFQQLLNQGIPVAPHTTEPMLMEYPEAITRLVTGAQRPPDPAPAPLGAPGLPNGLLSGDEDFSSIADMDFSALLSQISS
T1 sequence (P19838 1-433 limits assumed): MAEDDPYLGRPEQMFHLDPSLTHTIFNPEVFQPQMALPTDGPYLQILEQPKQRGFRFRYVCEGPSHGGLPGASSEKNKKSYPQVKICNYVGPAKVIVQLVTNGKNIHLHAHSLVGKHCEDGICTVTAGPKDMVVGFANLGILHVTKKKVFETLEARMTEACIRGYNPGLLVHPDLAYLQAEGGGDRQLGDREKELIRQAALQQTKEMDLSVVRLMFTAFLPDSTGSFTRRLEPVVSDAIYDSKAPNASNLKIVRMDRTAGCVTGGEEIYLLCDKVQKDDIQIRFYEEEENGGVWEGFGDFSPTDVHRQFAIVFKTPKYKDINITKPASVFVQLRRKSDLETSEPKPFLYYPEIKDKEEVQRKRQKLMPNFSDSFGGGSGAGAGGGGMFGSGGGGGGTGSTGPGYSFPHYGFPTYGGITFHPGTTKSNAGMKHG
Experimental: as §1
(§2) Nuclear and cytosolic protein extracts were obtained from cultured amnion cells as described by Schreiber et al (1989). For nuclear/cytosolic fractionation, confluent cell monolayers were scraped and lysed using a buffer containing 10 mM HEPES, 10 mM KCl, 0.1 mM EDTA, 0.1 mM EGTA, 2 mM DTT, 1% (v/v) NP-40 and complete protease inhibitor tablets (CPIs, Roche), diluted to manufacturer's instructions. Cell lysates were incubated on ice for 10 min and NP-40 added to a final concentration of 1% (v/v). Lysates were vortexed for 10 secs and centrifuged for 30 secs at 4° C., 12000 g. The supernatants were retained as the cytosolic protein extracts. The pellets were resuspended in buffer containing 10 mM HEPES, 10 mM KCl, 0.1 mM EDTA, 0.1 mM EGTA, 2 mM DTT, 400 mM NaCl, 1% NP-40 (v/v) and CPIs. Samples were shaken vigorously for 15 min in an ice bath. The nuclear protein extracts were obtained in the supernatant following a 5 min centrifugation at 4° C., 12000 g.
(§3) Sense and antisense strands (175 nmole/ml each) were incubated in annealing buffer (10 mM Tris-HCl pH7.5, 100 mM NaCl, 1 mM EDTA) for 10 min at 65° C., and allowed to cool at room temperature for 2 h. 3.5 pmole double-stranded oligonucleotides were end-labelled with 0.37 MBq ^32P(γATP) by incubating for 30 min at 37° C. with T4 polynucleotide kinase. Labelled oligonucleotides were recovered by centrifugation at 3000 rpm for 2 min through MicroSpin G-25 or G-50 sephadex columns (Amersham Biosciences).
(§4) 3-5 μg protein extracts were incubated on ice for 1 h with non-radiolabelled non-specific oligonucleotide (poly(dI-dC) or Oct-1) in a binding buffer (20% (v/V) glycerol, 5 mM MgCl2, 2 mM EDTA, 50 mM Tris-HCl pH7.5, 250 mM NaCl, 2 mM DTT), followed by a 45 min incubation with 0.035 pmole ^32P(γ(ATP)-end labelled oligonucleotide probes:
(§5) Oct-1 or SP-1 consensus sequences were used as a controls for a NF-κB-specific effect. The resulting protein/DNA complexes were separated in a 4% acrylamide gel, the gel dried under vacuum at 80° C. and exposed to X-ray film. For supershift analysis, samples were incubated with 2 μg antibodies for 30 min on ice prior to incubation with oligonucleotides. Non-radio-labelled oligonucleotides were used at 100-fold molar excess for specific and non-specific competition for DNA binding. Reagents for EMSA were obtained from Promega Life Sciences, Delta House, Chilworth Research Centre, Southampton SO16 7NS, United Kingdom.

[3] = tested on: PPARα; details: GAL4 chimera transfection system (Kehrer et al., 2001); cited from earlier work
[4] = tested on: NF-κB; assay: NF-κB-dependent luciferase reporter (κB.BG.Luc) in amnion cells; assay type: cell-based, human; details: L− or L+ amnion cells, treated 2 h, IL-1β 1 ng/ml 6 h
Experimental: . Values are normalised for b-gal reporter activity.
(§6) Placentae were obtained from patients at term either at elective Caesarean section prior to labour (L−) or following spontaneous labour onset and vaginal delivery (L+). Amnion cells were prepared as described in Bennett et al., (1989). Briefly, the amnion was separated from the placenta, washed 3× in PBS, cut into strips, and incubated in 0.5 mM EDTA in PBS for 15 min. The strips were washed in PBS 2× and digested with 2.5 mg/ml dispase in serum-free DMEM for 35 min at 37° C. The amnion was then shaken vigorously in DMEM, 10% FCS to dissociate the cells, the remaining strips discarded, and the cell suspension pelleted at 175 g for 10 min and cultured in DMEM, 10% FCS (Sigma), 1% L-glutamine, 1% penicillin-streptomycin.
pGL3.6κB.BG.luc was the reporter construct used to assess NF-κB-mediated transcription, while the mutant pGL3.6κBmut.luc and empty pGL3.BG.luc were used as controls (Schwarzer et al., 1998).
pGL3.6κB.BG.luc: a NF-κB-dependent reporter construct with 6 copies of the NF-κB binding site. It contains two tandem repeats of the sequence 5′-GGG GAC TTT C CC TGGGGACTTTCCCTGGGGACTTTCCC-3′, which contains three copies of the decameric NF-κB binding site (underlined) upstream of a minimal β-globin promoter driving a luciferase gene.
Cells were co-transfected with the renilla vector pRL-CMV or β-galactosidase vector pCH110 as internal controls for transfection efficiencies.

[5] = target: T1, NF-κB; assay: EMSA of NF-κB DNA binding in nuclear extracts of treated amnion cells; assay type: cell-based; details: amnion cells treated with 15d-PGJ2 in the presence of the PPAR-γ inhibitor
Experimental: as §6, §2, §3, §4, §5

[6] = target: T2, PPAR-γ (Homo sapiens, UniProt P37231); details: covalent modification of Cys285 (Leesnitzer et al., 2002); cited from earlier work
T2 sequence (P37231 1-505): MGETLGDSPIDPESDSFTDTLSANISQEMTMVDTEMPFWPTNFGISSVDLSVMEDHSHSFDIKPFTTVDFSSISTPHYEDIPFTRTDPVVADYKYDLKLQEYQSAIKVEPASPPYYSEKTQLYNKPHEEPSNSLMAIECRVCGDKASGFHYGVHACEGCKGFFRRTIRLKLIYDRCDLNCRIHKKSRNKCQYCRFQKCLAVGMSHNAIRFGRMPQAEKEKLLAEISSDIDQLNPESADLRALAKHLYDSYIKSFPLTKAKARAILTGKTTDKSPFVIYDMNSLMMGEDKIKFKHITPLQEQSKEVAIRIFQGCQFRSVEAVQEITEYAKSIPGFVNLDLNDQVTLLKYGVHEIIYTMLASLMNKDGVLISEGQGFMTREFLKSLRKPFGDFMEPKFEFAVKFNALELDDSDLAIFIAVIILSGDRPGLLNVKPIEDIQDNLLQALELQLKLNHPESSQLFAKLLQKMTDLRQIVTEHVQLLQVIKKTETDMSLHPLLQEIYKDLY

| NF-κB DNA binding (EMSA) ([2]; 10-100 μM concentrations) | IL-1β-induced NF-κB DNA binding (EMSA) ([2]; treated 2 h, then IL-1β 15 min) | Alleviation of 15d-PGJ2 inhibition of NF-κB DNA binding [5] | Alleviation of 15d-PGJ2 inhibition of NF-κB DNA binding ([5]; listed as GW9662) | Structure (SMILES) | IL-1β-induced COX-2 expression [1] | Doses that transactivate PPARα [3] | IL-1β-induced NF-κB transcriptional activity (κB.BG.Luc reporter) [4] | Binding to PPAR-γ [6] |
| --- | --- | --- | --- | --- | --- | --- | --- | --- |
| had no effect | do not inhibit |  |  | Cc1cccc(Nc2cc(Cl)nc(SCC(=O)O)n2)c1C [WY-14643, reference compound] | not | 5 to 25 µM | did not |  |
|  |  | failed to alleviate | does not alleviate | O=C(Nc1ccccc1)c1cc([N+](=O)[O-])ccc1Cl [GW-9662, reference compound] |  |  |  | binds irreversibly |
